In patent US9120805B2, “Substituted pyrrolo[1,2-A]pyrazin-1-ones and pyrazolo[1,5-A]pyrazin-4-ones as inhibitors of tankyrase and poly(ADP-ribose)polymerase activity” (Merck Patent GmbH, priority 2012, dated 2015):

Legend:
Assay type in all cases: biochemical
[1] = biological target: T1, His-tagged Parp-1 (Homo sapiens, UniProt P09874); test: PARP-1 autoparsylation assay (HTRF); conditions: PARP-1 autoparsylation HTRF assay
T1 construct: purchased Enzo Life Sciences GmbH
Excerpt: Description of the PARP1 Assay
Biochemical Activity Testing of PARP-1: Autoparsylation Assay
The autoparsylation assay is run in two steps: the enzymatic reaction in which
His-tagged Parp-1 transfers biotinylated ADP-ribose/ADP-ribose to itself from biotinylated NAD/NAD as co-substrate and the detection reaction where a time resolved FRET between cryptate labelled anti-His antibody bound to the His tag of the enzyme and Xlent® labelled-streptavidin bound the biotin-parsylation residue is analysed. The autoparsylation activity is detectable directly via the increase in HTRF signal.
The autoparsylation assay is performed as 384-well HTRF® (Cisbio, Codolet, France) assay format in Greiner low volume nb 384-well microtiter plates. 35 nM His-tagged Parp-1 (human, recombinant, Enzo Life Sciences GmbH, Lörrach, Germany) and a mixture of 125 nM bio-NAD (Biolog, Life science Inst., Bremen, Germany) and 800 nM NAD as co-substrate are incubated in a total volume of 6 μl (100 mM Tris/HCl, 4 mM Mg-chloride, 0.01% IGEPAL® CA630, 1 mM DTT, 0.5% DMSO, pH 8, 13 ng/μl activated DNA (BPS Bioscience, San Diego, US)) in the absence or presence of the test compound (10 dilution concentrations) for 150 min at 23° C. The reaction is stopped by the addition of 4 μl of the Stop/detection solution (70 nM SA-Xlent® (Cisbio, Codolet, France), 2.5 nM Anti-His-K® (Eu-labelled anti-His, Cisbio, Codolet, France) in 50 mM HEPES, 400 mM KF, 0.1% BSA, 20 mM EDTA, pH 7.0). After 1 h incubation at room temperature the HTRF is measured with an Envision multimode reader (Perkin Elmer LAS Germany GmbH) at excitation wavelength 340 nm (laser mode) and emission wavelengths 615 nm and 665 nm. The ratio of the emission signals is determined. The full value used is the inhibitor-free reaction. The pharmacological zero value used is Olaparib (LClabs, Woburn, US) in a final concentration of 1 μM. The inhibitory values (IC50) are determined using either the program Symyx Assay Explorer® or Condosseo® from GeneData.

[2] = biological target: T2, GST-tagged Tnks-1 (1023-1327 aa) (Homo sapiens, UniProt O95271); test: TNKS1 activity ELISA (autoparsylation assay)
T2 construct: GST-tagged Tnks-1 (1023-1327 aa, prepared in-house); made in house
T2 sequence (O95271 1023-1327): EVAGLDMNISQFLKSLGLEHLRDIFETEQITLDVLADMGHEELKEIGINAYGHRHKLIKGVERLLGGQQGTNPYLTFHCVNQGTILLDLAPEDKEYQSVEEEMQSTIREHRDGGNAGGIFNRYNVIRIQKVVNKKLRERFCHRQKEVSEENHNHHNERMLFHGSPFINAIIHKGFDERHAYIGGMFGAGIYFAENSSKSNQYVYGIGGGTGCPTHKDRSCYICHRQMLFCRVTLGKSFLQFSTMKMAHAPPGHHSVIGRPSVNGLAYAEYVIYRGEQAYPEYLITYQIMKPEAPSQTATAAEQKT
Protocol: (§1) Description of the TNKS1 and TNKS2 ELISA Assay
(§2) Biochemical Activity Testing of TNKS 1 and 2: Activity ELISA (Autoparsylation Assay)
(§3) For analysis of autoparsylation activity of TNKS 1 and 2 an activity ELISA is performed: In the first step GST tagged TNKS is captured on a Glutathione coated plate. Then the activity assay with biotinylated NAD is performed in the absence/presence of the compounds. During the enzymatic reaction GST tagged TNKS transfers biotinylated ADP-ribose to itself from biotinylated NAD as co-substrate. For the detection streptavidin-HRP conjugate is added that binds to the biotinylated TNKS and is thereby captured to the plates. The amount of biotinylated resp. autoparsylated TNKS is detected with a luminescence substrate for HRP. The level of the luminescence signal correlates directly with the amount of autoparsylated TNKS and therefore with activity of TNKS.
(§4) The activity ELISA is performed in 384 well Glutathione coated microtiter plates (Express capture Glutathione coated plate, Biocat, Heidelberg, Germany). The plates are pre-equilibrated with PBS. Then the plates are incubated with 50 μl 20 ng/well GST-tagged Tnks-1 (1023-1327 aa, prepared in-house), respectively GST-tagged Tnks-2 (873-1166 aa, prepared in-house) in assay buffer (50 mM HEPES, 4 mM Mg-chloride, 0.05% Pluronic F-68, 2 mM DTT, pH 7.7) overnight at 4° C. The plates are washed 3 times with PBS-Tween-20. The wells are blocked by incubation at room temperature for 20 minutes with 50 μl blocking buffer (PBS, 0.05% Tween-20, 0.5% BSA). Afterwards the plates are washed 3 times with PBS-Tween-20. The enzymatic reaction is performed in 50 μl reaction solution (50 mM HEPES, 4 mM Mg-chloride, 0.05% Pluronic F-68, 1.4 mM DTT, 0.5% DMSO, pH 7.7) with 10 μM bio-NAD (Biolog, Life science Inst., Bremen, Germany) as co-substrate in the absence or presence of the test compound (10 dilution concentrations) for 1 hour at 30° C. The reaction is stopped by 3 times washing with PBS-Tween-20. For the detection 50 μl of 20 ng/μl Streptavidin, HRP conjugate (MoBiTec, Göttingen, Germany) in PBS/0.05% Tween-20/0.01% BSA are added and the plates are incubated for 30 minutes at room temperature. After three times washing with PBS-Tween-20 50 μl of SuperSignal ELISA Femto Maximum sensitivity substrate solution (ThermoFisherScientific (Pierce), Bonn, Germany) are added. Following a 1 minute incubation at room temperature luminescence signals are measured with an Envision multimode reader (Perkin Elmer LAS Germany GmbH) at 700 nm. The full value used is the inhibitor-free reaction. The pharmacological zero value used is XAV-939 (Tocris) in a final concentration of 5 μM. The inhibitory values (1050) are determined using either the program Symyx Assay Explorer® or Condosseo® from GeneData.

[3] = biological target: T3, GST-tagged Tnks-2 (873-1166 aa) (Homo sapiens, UniProt Q9H2K2); test: TNKS2 activity ELISA (autoparsylation assay)
T3 construct: GST-tagged Tnks-2 (873-1166 aa, prepared in-house); made in house
T3 sequence (Q9H2K2 873-1166): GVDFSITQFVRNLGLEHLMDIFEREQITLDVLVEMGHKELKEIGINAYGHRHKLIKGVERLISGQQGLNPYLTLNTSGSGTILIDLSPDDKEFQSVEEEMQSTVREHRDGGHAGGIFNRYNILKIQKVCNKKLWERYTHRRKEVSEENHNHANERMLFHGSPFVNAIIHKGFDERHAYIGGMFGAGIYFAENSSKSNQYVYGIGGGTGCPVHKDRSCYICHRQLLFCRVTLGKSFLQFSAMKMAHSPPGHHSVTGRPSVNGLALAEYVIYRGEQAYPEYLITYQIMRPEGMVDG
Protocol: as §1, §2, §3, §4

T1 sequence (P09874 whole entry): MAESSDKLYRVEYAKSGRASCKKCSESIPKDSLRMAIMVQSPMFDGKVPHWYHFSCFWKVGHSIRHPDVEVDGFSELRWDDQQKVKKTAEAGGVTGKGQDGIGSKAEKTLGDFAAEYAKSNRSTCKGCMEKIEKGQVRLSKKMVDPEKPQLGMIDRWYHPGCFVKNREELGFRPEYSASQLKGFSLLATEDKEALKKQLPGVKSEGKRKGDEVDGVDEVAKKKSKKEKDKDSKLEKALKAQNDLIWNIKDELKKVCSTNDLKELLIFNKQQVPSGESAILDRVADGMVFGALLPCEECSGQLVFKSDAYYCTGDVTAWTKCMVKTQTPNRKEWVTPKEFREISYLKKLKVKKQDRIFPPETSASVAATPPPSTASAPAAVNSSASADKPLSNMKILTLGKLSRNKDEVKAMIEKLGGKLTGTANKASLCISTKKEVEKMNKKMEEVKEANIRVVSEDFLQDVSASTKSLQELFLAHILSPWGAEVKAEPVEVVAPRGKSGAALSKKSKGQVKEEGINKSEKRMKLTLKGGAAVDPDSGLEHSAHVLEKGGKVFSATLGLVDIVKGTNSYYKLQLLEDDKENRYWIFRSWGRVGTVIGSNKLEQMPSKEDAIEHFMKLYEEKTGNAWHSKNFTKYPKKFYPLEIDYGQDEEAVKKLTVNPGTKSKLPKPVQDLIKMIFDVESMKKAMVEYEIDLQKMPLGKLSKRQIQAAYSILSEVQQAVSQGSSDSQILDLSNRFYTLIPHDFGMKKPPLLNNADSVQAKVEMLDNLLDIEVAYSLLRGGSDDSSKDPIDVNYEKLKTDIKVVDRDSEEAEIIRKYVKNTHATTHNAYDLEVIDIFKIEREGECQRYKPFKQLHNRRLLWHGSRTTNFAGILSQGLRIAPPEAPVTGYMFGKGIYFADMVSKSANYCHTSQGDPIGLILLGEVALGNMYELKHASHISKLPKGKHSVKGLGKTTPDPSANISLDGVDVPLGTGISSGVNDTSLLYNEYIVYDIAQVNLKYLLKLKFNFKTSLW

SMILES | IC50 [1] [nM] | IC50 [2] [nM] | IC50 [3] [nM]
O=c1[nH]c(-c2ccc(C3(O)CCC3)cc2)cn2cccc12 [Compound A111] | 300 to 3000 | < 300 | < 300
CC(C)(C)c1ccc(-c2cn3cc(F)cc3c(=O)[nH]2)cc1 [Compound A35, 3-(4-tert-butyl-phenyl)-7-fluoro-2H-pyrrolo[1,2-a]pyrazin-1-one] | 3000 to 50000 | < 300 | < 300
CCC(O)(CC)c1ccc(-c2cn3cc(F)cc3c(=O)[nH]2)cc1 [Compound A61, 3-[4-(1-ethyl-1-hydroxy-propyl)-phenyl]-7-fluoro-2H-pyrrolo[1,2-a]pyrazin-1-one] | 300 to 3000 | < 300 | < 300
O=c1[nH]c(-c2ccc(C3CCNC3)cc2)cn2cccc12 (stereo not drawn) [Compound A76, 3-(4-Pyrrolidin-3-yl-phenyl)-2H-pyrrolo[1,2-a]pyrazin-1-one] | 300 to 3000 | < 300 | < 300
CN1CCC(c2ccc(-c3cn4cccc4c(=O)[nH]3)cc2)CC1 [Compound A79, 3-[4-(1-methyl-piperidin-4-yl)-phenyl]-2H-pyrrolo[1,2-a]pyrazin-1-one] | 3000 to 50000 | < 300 | < 300
CN1CCC(c2ccc(-c3cn4cccc4c(=O)[nH]3)cc2)C1 (stereo not drawn) [Compound A80, 3-[4-(1-methyl-pyrrolidin-3-yl)-phenyl]-2H-pyrrolo[1,2-a]pyrazin-1-one] | 3000 to 50000 | < 300 | < 300
CC1(c2ccc(-c3cn4cc(F)cc4c(=O)[nH]3)cc2)CCCO1 (stereo not drawn) [Compound A73, 7-fluoro-3-[4-(2-methyl-tetrahydro-furan-2-yl)-phenyl]-2H-pyrrolo[1,2-a]pyrazin-1-one] | 300 to 3000 | < 300 | < 300
Cc1cc2c(=O)[nH]c(-c3ccc(C(C)(C)O)cc3)cn2n1 [Compound A46, 6-[4-(1-hydroxy-1-methyl-ethyl)phenyl]-2-methyl-5H-pyrazolo[1,5-a]pyrazin-4-one] | 300 to 3000 | < 300 | < 300
Cn1cc(-c2ccc(-c3cn4cccc4c(=O)[nH]3)cc2)cn1 [Compound A25, 3-[4-(1-methyl-1H-pyrazol-4-yl)-phenyl]-2H-pyrrolo[1,2-a]pyrazin-1-one] | 3000 to 50000 | < 300 | < 300
Cc1cc2c(=O)[nH]c(-c3ccc(C(C)(C)O)cc3)cn2c1 [Compound A56, 3-[4-(1-hydroxy-1-methyl-ethyl)-phenyl]-7-methyl-2H-pyrrolo[1,2-a]pyrazin-1-one] | 300 to 3000 | < 300 | < 300
CC(C)(O)c1ccc(-c2cn3cccc3c(=O)[nH]2)cc1 [Compound A29, 3-[4-(1-hydroxy-1-methyl-ethyl)-phenyl]-2H-pyrrolo[1,2-a]pyrazin-1-one] | 300 to 3000 | < 300 | < 300
CC(C)(O)c1ccc(-c2cn3cc(F)cc3c(=O)[nH]2)cc1 [Compound A59, 7-fluoro-3-[4-(1-hydroxy-1-methyl-ethyl)-phenyl]-2H-pyrrolo[1,2-a]pyrazin-1-one] | 300 to 3000 | < 300 | < 300
CC(C)(F)c1ccc(-c2cn3cc(F)cc3c(=O)[nH]2)cc1 [Compound A63, 7-fluoro-3-[4-(1-fluoro-1-methyl-ethyl)-phenyl]-2H-pyrrolo[1,2-a]pyrazin-1-one] | 300 to 3000 | < 300 | < 300
O=c1[nH]c(-c2ccc(C3CCNCC3)cc2)cn2cccc12 [Compound A75, 3-(4-piperidin-4-yl-phenyl)-2H-pyrrolo[1,2-a]pyrazin-1-one] | 3000 to 50000 | < 300 | < 300
Cc1ccc(-c2cn3cccc3c(=O)[nH]2)cc1 [Compound A12, 3-p-tolyl-2H-pyrrolo[1,2-a]pyrazin-1-one] | 300 to 3000 | < 300 | < 300
CC(C)(C)c1ccc(-c2cn3cccc3c(=O)[nH]2)cc1 [Compound A11, 3-(4-tert-butyl-phenyl)-2H-pyrrolo[1,2-a]pyrazin-1-one] | 3000 to 50000 | < 300 | < 300
CC(C)(OCCO)c1ccc(-c2cn3cc(F)cc3c(=O)[nH]2)cc1 [Compound A70, 7-fluoro-3-{4-[1-(2-hydroxy-ethoxy)-1-methyl-ethyl]-phenyl}-2H-pyrrolo[1,2-a]pyrazin-1-one] | 300 to 3000 | < 300 | < 300
CC(C)(O)c1ccc(-c2cn3cc(Cl)cc3c(=O)[nH]2)cc1 [Compound A60, 7-chloro-3-[4-(1-hydroxy-1-methyl-ethyl)-phenyl]-2H-pyrrolo[1,2-a]pyrazin-1-one] | 300 to 3000 | < 300 | < 300
COCCOC(C)(C)c1ccc(-c2cn3cc(F)cc3c(=O)[nH]2)cc1 [Compound A71, 7-fluoro-3-{4-[1-(2-methoxy-ethoxy)-1-methyl-ethyl]-phenyl}-2H-pyrrolo[1,2-a]pyrazin-1-one] | 3000 to 50000 | < 300 | < 300
CC(C)(N)c1ccc(-c2cn3cc(F)cc3c(=O)[nH]2)cc1 [Compound A72, 3-[4-(1-amino-1-methyl-ethyl)-phenyl]-7-fluoro-2H-pyrrolo[1,2-a]pyrazin-1-one] | < 300 | < 300 | < 300
